ChEMBL document CHEMBL1201861, “Genomics of Drug Sensitity in Cancer screening data, Wellcome Trust Sanger Institute”
pIC50: −log10 of the molar value. Several values for one entry are separate records, joined by “and”; a condition that tells them apart may be missing. Equal values may be shown once. Where a SMILES comes first, the peptide text is derived from it. The star is where a group is joined. Cbz = O=C(OCc1ccccc1)*

Tests used:
Test in all cases: cells
[1] = test system: CTV-1; type: functional, cell-based, Homo sapiens;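 also: growth inhibition of the cell line, read out with a cell viability assay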
Description: SANGER: Inhibition of human CTV-1 cell growth in a cell viability assay.

[2] = test system: DOHH-2; type: functional, cell-based, Homo sapiens;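 also: growth inhibition of human DOHH-2 cells, read out with a cell viability assay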
Description: SANGER: Inhibition of human DOHH-2 cell growth in a cell viability assay.

[3] = test system: DU-4475; type: functional, cell-based, Homo sapiens
Description: SANGER: Inhibition of human DU-4475 cell growth in a cell viability assay.

[4] = test system: EKVX; type: functional, cell-based, Homo sapiens;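 also: growth inhibition of human EKVX cells, read out with a cell viability assay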
Description: SANGER: Inhibition of human EKVX cell growth in a cell viability assay.

[5] = test system: ES3; type: functional, cell-based, Homo sapiens;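 also: growth inhibition of ES3 cells, read out with a cell viability assay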
Description: SANGER: Inhibition of human ES3 cell growth in a cell viability assay.

[6] = test system: ES4; type: functional, cell-based, Homo sapiens;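 also: growth inhibition of human ES4 cells, read out by a cell viability assay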
Description: SANGER: Inhibition of human ES4 cell growth in a cell viability assay.

[7] = test system: EW-16; type: functional, cell-based, Homo sapiens;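 also: growth inhibition of human EW-16 cells, read out as cell viability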
Description: SANGER: Inhibition of human EW-16 cell growth in a cell viability assay.

[8] = test system: GI-1; type: functional, cell-based, Homo sapiens;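 also: growth inhibition of human GI-1 cells, measured with a cell viability readout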
Description: SANGER: Inhibition of human GI-1 cell growth in a cell viability assay.

[9] = test system: HCC2157; type: functional, cell-based, Homo sapiens;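 also: growth inhibition of the cancer cell line, read out as cell viability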
Description: SANGER: Inhibition of human HCC2157 cell growth in a cell viability assay.

[10] = test system: HDLM-2; type: functional, cell-based, Homo sapiens;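 also: cell viability assay measuring suppression of HDLM-2 proliferation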
Description: SANGER: Inhibition of human HDLM-2 cell growth in a cell viability assay.

[11] = test system: HL-60; type: functional, cell-based, Homo sapiens;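 also: growth inhibition of human HL-60 cells, read out with a cell viability assay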
Description: SANGER: Inhibition of human HL-60 cell growth in a cell viability assay.

[12] = test system: HT; type: functional, cell-based, Homo sapiens
Description: SANGER: Inhibition of human HT cell growth in a cell viability assay.

[13] = test system: J-RT3-T3-5; type: functional, cell-based, Homo sapiens;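 also: cell viability assay measuring growth inhibition of human J-RT3-T3-5 cells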
Description: SANGER: Inhibition of human J-RT3-T3-5 cell growth in a cell viability assay.

[14] = test system: JVM-2; type: functional, cell-based, Homo sapiens;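 also: growth inhibition of JVM-2 cells determined by a cell viability assay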
Description: SANGER: Inhibition of human JVM-2 cell growth in a cell viability assay.

[15] = test system: KARPAS-45; type: functional, cell-based, Homo sapiens;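 also: inhibition of cell line growth, read out through a viability assay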
Description: SANGER: Inhibition of human KARPAS-45 cell growth in a cell viability assay.

[16] = test system: KU812 cell line; type: functional, cell-based, Homo sapiens;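 also: growth inhibition of KU812 cells, read out with a cell viability assay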
Description: SANGER: Inhibition of human KU812 cell growth in a cell viability assay.

[17] = test system: KURAMOCHI; type: functional, cell-based, Homo sapiens;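 also: growth inhibition of KURAMOCHI cells, read out with a cell viability assay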
Description: SANGER: Inhibition of human KURAMOCHI cell growth in a cell viability assay.

[18] = test system: KY821; type: functional, cell-based, Homo sapiens;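 also: growth inhibition of human KY821 cells, read out by a cell viability assay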
Description: SANGER: Inhibition of human KY821 cell growth in a cell viability assay.

[19] = test system: LAMA-84; type: functional, cell-based, Homo sapiens;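 also: growth inhibition of LAMA-84 cells, read out with a cell viability assay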
Description: SANGER: Inhibition of human LAMA-84 cell growth in a cell viability assay.

[20] = test system: LAN-6; type: functional, cell-based, Homo sapiens;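 also: growth inhibition of LAN-6 cells, determined with a cell viability assay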
Description: SANGER: Inhibition of human LAN-6 cell growth in a cell viability assay.

[21] = test system: LB1047-RCC; type: functional, cell-based, Homo sapiens;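 also: inhibition of cell growth, determined with a cell viability assay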
Description: SANGER: Inhibition of human LB1047-RCC cell growth in a cell viability assay.

[22] = test system: LB771-HNC; type: functional, cell-based; settings: Homo sapiens;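 also: growth inhibition of LB771-HNC human cells, read out with a cell viability assay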
Description: SANGER: Inhibition of human LB771-HNC cell growth in a cell viability assay.

[23] = test system: LC-2-ad; type: functional, cell-based, Homo sapiens;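 also: growth inhibition of human LC-2-ad cells, read out with a cell viability assay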
Description: SANGER: Inhibition of human LC-2-ad cell growth in a cell viability assay.

[24] = test system: LNCaP-Clone-FGC; type: functional, cell-based, Homo sapiens
Description: SANGER: Inhibition of human LNCaP-Clone-FGC cell growth in a cell viability assay.

[25] = test system: LS-411N; type: functional, cell-based, Homo sapiens
[26] = test system: LU-134-A; type: functional, cell-based, Homo sapiens
Description: SANGER: Inhibition of human LU-134-A cell growth in a cell viability assay.

[27] = test system: MC116; type: functional, cell-based, Homo sapiens;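 also: growth inhibition of MC116 cells, read out with a cell viability assay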
Description: SANGER: Inhibition of human MC116 cell growth in a cell viability assay.

[28] = test system: NB10; type: functional, cell-based, Homo sapiens;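 also: growth inhibition of NB10 cells, read out by a cell viability assay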
Description: SANGER: Inhibition of human NB10 cell growth in a cell viability assay.

[29] = test system: NCI-H1155; type: functional, cell-based, Homo sapiens;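 also: cell growth inhibition measured by a viability assay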
Description: SANGER: Inhibition of human NCI-H1155 cell growth in a cell viability assay.

[30] = test system: NCI-H226; type: functional, cell-based, Homo sapiens;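 also: cell viability read-out used to gauge growth inhibition of the cells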
Description: SANGER: Inhibition of human NCI-H226 cell growth in a cell viability assay.

[31] = test system: NKM-1; type: functional, cell-based, Homo sapiens;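 also: growth inhibition of NKM-1 cells, read out with a cell viability assay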
Description: SANGER: Inhibition of human NKM-1 cell growth in a cell viability assay.

[32] = test system: P30-OHK; type: functional, cell-based, Homo sapiens;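 also: growth inhibition of the P30-OHK cell line, read out with a cell viability assay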
Description: SANGER: Inhibition of human P30-OHK cell growth in a cell viability assay.

[33] = test system: RXF 393; type: functional, cell-based, Homo sapiens;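 also: growth inhibition of human RXF 393 cells, read out with a cell viability assay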
Description: SANGER: Inhibition of human RXF393 cell growth in a cell viability assay.

[34] = test system: SCH; type: functional, cell-based, Homo sapiens;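 also: growth inhibition of human SCH cells, read out in a cell viability assay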
Description: SANGER: Inhibition of human SCH cell growth in a cell viability assay.

[35] = test system: SK-PN-DW; type: functional, cell-based, Homo sapiens;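 also: growth inhibition measured with a viability assay on these cells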
Description: SANGER: Inhibition of human SK-PN-DW cell growth in a cell viability assay.

[36] = test system: SK-UT-1; type: functional, cell-based, Homo sapiens;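 also: growth inhibition of SK-UT-1 cells, measured by a cell viability assay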
Description: SANGER: Inhibition of human SK-UT-1 cell growth in a cell viability assay.

[37] = test system: SW 954; type: functional, cell-based, Homo sapiens;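 also: growth inhibition of SW954 human cancer cells, read out as cell viability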
Description: SANGER: Inhibition of human SW954 cell growth in a cell viability assay.

[38] = test system: TE-1; type: functional, cell-based, Homo sapiens;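 also: growth inhibition of the human TE-1 cell line, read out with a cell viability assay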
Description: SANGER: Inhibition of human TE-1 cell growth in a cell viability assay.

[39] = test system: A253 cell line; type: functional, cell-based, Homo sapiens;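 also: growth inhibition of A253 cells, read out with a cell viability assay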
Description: SANGER: Inhibition of human A253 cell growth in a cell viability assay.

[40] = test system: A4-Fuk; type: functional, cell-based, Homo sapiens;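 also: growth inhibition of A4-Fuk cells, read out by a cell viability assay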
Description: SANGER: Inhibition of human A4-Fuk cell growth in a cell viability assay.

[41] = test system: A498; type: functional, cell-based, Homo sapiens;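 also: growth inhibition of human A498 cells, read out with a cell viability assay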
Description: SANGER: Inhibition of human A498 cell growth in a cell viability assay.

[42] = test system: ACN; type: functional, cell-based, Homo sapiens;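 also: growth inhibition of the human ACN cell line, read out via cell viability testing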
Description: SANGER: Inhibition of human ACN cell growth in a cell viability assay.

[43] = test system: TE-11; type: functional, cell-based; settings: Homo sapiens;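 also: growth inhibition of human TE-11 cells, read out by a cell viability assay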
Description: SANGER: Inhibition of human TE-11 cell growth in a cell viability assay.

[44] = test system: TE-12; type: functional, cell-based, Homo sapiens;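 also: growth inhibition of TE-12 cells, read out by a cell viability assay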
Description: SANGER: Inhibition of human TE-12 cell growth in a cell viability assay.

[45] = test system: TGBC24TKB; type: functional, cell-based; settings: Homo sapiens;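 also: growth inhibition of human TGBC24TKB cells, read out with a cell viability assay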
Description: SANGER: Inhibition of human TGBC24TKB cell growth in a cell viability assay.

[46] = test system: UACC-257; type: functional, cell-based, Homo sapiens
Description: SANGER: Inhibition of human UACC-257 cell growth in a cell viability assay.

[47] = test system: CAS-1; type: functional, cell-based, Homo sapiens;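 also: growth inhibition of CAS-1 cells, measured with a cell viability assay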
Description: SANGER: Inhibition of human CAS-1 cell growth in a cell viability assay.

## NC(=O)c1cccc(-c2cc(Nc3ccc(OC(F)(F)F)cc3)ncn2)c1
[1]; Homo sapiens, CTV-1
  pIC50: < 5.89
[2]; Homo sapiens, DOHH-2
  pIC50: < 5.89
[3]; Homo sapiens, DU-4475
  pIC50: < 5.89
[4]; Homo sapiens, EKVX
  pIC50: < 5.89
[5]; Homo sapiens, ES3
  pIC50: < 5.89
[6]; Homo sapiens, ES4
  pIC50: < 5.89
[7]; Homo sapiens, EW-16
  pIC50: < 5.89
[8]; Homo sapiens, GI-1
  pIC50: < 5.89
[9]; Homo sapiens, HCC2157
  pIC50: < 5.89
[10]; Homo sapiens, HDLM-2
  pIC50: < 5.89
[11]; Homo sapiens, HL-60
  pIC50: < 5.89
[12]; Homo sapiens, HT
  pIC50: < 5.89
[13]; Homo sapiens, J-RT3-T3-5
  pIC50: < 5.89
[14]; Homo sapiens, JVM-2
  pIC50: < 5.89
[15]; Homo sapiens, KARPAS-45
  pIC50: < 5.89
[16]; Homo sapiens, KU812
  pIC50: < 5.89
[17]; Homo sapiens, KURAMOCHI
  pIC50: < 5.89
[18]; Homo sapiens, KY821
  pIC50: < 5.89
[19]; Homo sapiens, LAMA-84
  pIC50: 6.79
[20]; Homo sapiens, LAN-6
  pIC50: < 5.89
[21]; Homo sapiens, LB1047-RCC
  pIC50: < 5.89
[22]
  pIC50: < 5.89
[23]; Homo sapiens, LC-2-ad
  pIC50: < 5.89
[24]; Homo sapiens, LNCaP-Clone-FGC
  pIC50: < 5.89
[25]; Homo sapiens, LS-411N
  pIC50: < 5.89
[26]; Homo sapiens, LU-134-A
  pIC50: < 5.89
[27]; Homo sapiens, MC116
  pIC50: < 5.89
[28]; Homo sapiens, NB10
  pIC50: < 5.89
[29]; Homo sapiens, NCI-H1155
  pIC50: < 5.89
[30]; Homo sapiens, NCI-H226
  pIC50: < 5.89
[31]; Homo sapiens, NKM-1
  pIC50: < 5.89
[32]; Homo sapiens, P30-OHK
  pIC50: < 5.89
[33]; Homo sapiens, RXF 393
  pIC50: < 5.89
[34]; Homo sapiens, SCH
  pIC50: < 5.89
[35]; Homo sapiens, SK-PN-DW
  pIC50: < 5.89
[36]; Homo sapiens, SK-UT-1
  pIC50: < 5.89
[37]; Homo sapiens, SW 954
  pIC50: < 5.89
[38]; Homo sapiens, TE-1
  pIC50: < 5.89
[39]; Homo sapiens, A253
  pIC50: < 5.89
[40]; Homo sapiens, A4-Fuk
  pIC50: < 5.89
[41]; Homo sapiens, A498
  pIC50: < 5.89
[42]; Homo sapiens, ACN
  pIC50: < 5.89
[43]
  pIC50: < 5.89
[44]; Homo sapiens, TE-12
  pIC50: < 5.89
[45]
  pIC50: < 5.89
[46]; Homo sapiens, UACC-257
  pIC50: < 5.89
[47]; Homo sapiens, CAS-1
  pIC50: < 5.89

## CC(C)C[C@@H](C=O)NC(=O)[C@H](CC(C)C)NC(=O)[C@H](CC(C)C)NC(=O)OCc1ccccc1 [MG-132] (Cbz-Leu-Leu-Leu-aldehyde)
[1]; ctv-1
  pIC50: < 6.00
[2]; dohh-2
  pIC50: < 6.00
[3]; du-4475
  pIC50: 6.71 and < 6.00
[4]; ekvx
  pIC50: < 6.00
[5]; es3
  pIC50: < 6.00
[6]; es4
  pIC50: < 6.00
[7]; ew-16
  pIC50: < 6.00
[8]; gi-1
  pIC50: < 6.00
[9]; hcc2157
  pIC50: < 6.00
[10]; hdlm-2
  pIC50: < 6.00
[11]; hl-60
  pIC50: < 6.00
[12]; ht
  pIC50: < 6.00
[13]; j-rt3-t3-5
  pIC50: < 6.00
[14]; jvm-2
  pIC50: < 6.00
[15]; karpas-45
  pIC50: < 6.00
[16]; Homo sapiens, KU812
  pIC50: < 6.00
[16]; ku812
  pIC50: < 6.00
[17]; kuramochi
  pIC50: < 6.00
[18]; ky821
  pIC50: < 6.00
[19]; lama-84
  pIC50: 6.66 and < 6.00
[20]; lan-6
  pIC50: 6.50 and < 6.00
[21]; Homo sapiens, LB1047-RCC
  pIC50: < 6.00
[21]; lb1047-rcc
  pIC50: < 6.00
[23]; Homo sapiens, LC-2-ad
  pIC50: < 6.00
[23]; lc-2-ad
  pIC50: < 6.00
[24]; Homo sapiens, LNCaP-Clone-FGC
  pIC50: < 6.00
[24]; lncap-clone-fgc
  pIC50: < 6.00
[25]; ls-411n
  pIC50: < 6.00
[26]; Homo sapiens, LU-134-A
  pIC50: < 6.00
[26]; lu-134-a
  pIC50: < 6.00
[27]; mc116
  pIC50: < 6.00
[28]; nb10
  pIC50: < 6.00
[29]; nci-h1155
  pIC50: < 6.00
[30]; Homo sapiens, NCI-H226
  pIC50: < 6.00
[30]; nci-h226
  pIC50: < 6.00
[31]; nkm-1
  pIC50: < 6.00
[32]; p30-ohk
  pIC50: < 6.00
[33]; rxf 393
  pIC50: 6.60 and < 6.00
[34]; sch
  pIC50: < 6.00
[35]; sk-pn-dw
  pIC50: 6.63 and < 6.00
[36]; sk-ut-1
  pIC50: 6.66 and < 6.00
[37]; Homo sapiens, SW 954
  pIC50: < 6.00
[37]; sw 954
  pIC50: < 6.00
[38]; te-1
  pIC50: 6.35 and < 6.00
[39]; a253
  pIC50: 6.79 and < 6.00
[40]; a4-fuk
  pIC50: < 6.00
[41]; Homo sapiens, A498
  pIC50: < 6.00
[41]; a498
  pIC50: < 6.00
[42]; acn
  pIC50: 6.65 and < 6.00
[43]
  pIC50: < 6.00
[44]; Homo sapiens, TE-12
  pIC50: < 6.00
[44]; te-12
  pIC50: < 6.00
[45]
  pIC50: < 6.00
[46]; uacc-257
  pIC50: 6.92 and < 6.00
[47]; cas-1
  pIC50: 6.81 and < 6.00
